Data set [1] in a line: Stability of crystalline form P1 at 25° C./60% RH and 40° C./75% RH for 3 months (closed conditions). In kind it is physicochemical.
Data set [2] can be described thus: Stability of crystalline form P1 under 80% RH (open condition) and illumination (300-400 nm). In kind it is physicochemical.

Take `COc1ccc(F)cc1C(=O)NCc1ccc(-c2nn([C@@H](C)C(F)(F)F)c(N)c2C(N)=O)cc1` [Crystalline form P1 of Pirtobrutinib, (S)-5-amino-3-(4-((5-fluoro-2-methoxybenzamido)methyl)phenyl)-1-(1,1,1-trifluoropropan-2-yl)-1H-pyrazole-4-carboxamide]: the Purity was found to be 98.9% in data set [1] (0 Day); 98.7% in data set [1] (25° C./60% RH (Closed Condition) (3 months)); 98.9% in data set [1] (40° C./75% RH (Closed Condition) (3 months)); 98.9% in data set [2] (0 Day); 98.9% in data set [2] (Exposure at 80% RH for 1 day (Open Condition)); 98.9% in data set [2] (Illumination (300-400 nm) for 24 hours). Also, the Stability entry in data set [1] (3 months at accelerated conditions) is reported as “stable”; in data set [1] (40° C./75% RH for 3 months under closed conditions), “stable”; in data set [2] (high humidity and illumination conditions), “stable”. Moreover, the “Physical and chemical stability” value in data set [1] (25° C./60% RH for 3 months under closed conditions) is “physically and chemically stable”; in data set [2] (kept at 80% RH in open condition), “physically and chemically stable”; in data set [2] (kept under illumination (300-400 nm) for 24 hours) it was “physically and chemically stable”.

Source of the values: patent US20260272883A1, “SOLID STATE FORMS OF PIRTOBRUTINIB AND PROCESS FOR THE PREPARATION OF INTERMEDIATE THEREOF” (DR. REDDY'S LABORATORIES LIMITED, priority 2023, published 2026).
